Laboratory results reported in patent publication US8697742B2, “BCRP/ABCG2 inhibitor” (Kabushiki Kaisha Yakult Honsha, priority 2005, dated 2014).
≈ marks a conversion by molar mass, not a printed value. Structures can show the parent of a compound that is named as a salt.

tested on: A549/SN-38-4 cells; assay: Effect of overcoming SN-38 resistance of BCRP-expressing A549/SN-38-4 cells; assay type: cell-based, human; details: Homo sapiens, A549, 48 h, concentration for 50% reduction of relative SN-38 resistance value (IC50 A549/SN-38-4 / IC50 A549); 48 hours culture with SN-38; read-out: Effect of overcoming resistance EC50
Experimental: The human lung cancer A549 cells or the A549/SN-38-4 cells were suspended in a Ham's F-12 medium containing 10% FBS, 100 U/mL of penicillin, and 100 μg/mL of streptomycin (10% FBS/Ham's F-12), and the resultant suspension was inoculated into a 96-well microplate (2×10^3 cells/50 μL/well), followed by culturing at 5% CO2 and 37° C. overnight. […] After completion of culturing, the number of viable cells was counted by use of a viable cell counting reagent [TetraColor ONE (trademark), product of Seikagaku Corporation] according to the attached instruction manual. […] The greater the relative resistance value, the higher the level of acquired resistance.

EC50 [µg/mL]	Structure (SMILES)
0.036 (≈ 0.108 µM)	COc1ccc(/C(C#N)=C/c2ccc(Br)o2)cc1OC [Compound 54, (Z)-3-(5-bromo-furan-2-yl)-2-(3,4-dimethoxy-phenyl)-acrylonitrile]
0.044	CCN(CC)CCCNC(=O)CCC(=O)OC1CCN(c2ccc(/C=C(\C#N)c3ccc(OC)c(OC)c3)s2)CC1 [Compound 61, 1-[5-[(Z)-2-cyano-2-(3,4-dimethoxy-phenyl)-vinyl]-thiophen-2-yl]-piperidin-4-yl N-(3-diethylamino-propyl)-succinamate hydrochloride]
0.062	COc1ccc(/C(C#N)=C/c2ccc(N3CCC(OC(=O)CN(C)C)CC3)s2)cc1OC.Cc1ccc(S(=O)(=O)O)cc1 [Compound 62, 1-[5-[(Z)-2-cyano-2-(3,4-dimethoxy-phenyl)-vinyl]-thiophen-2-yl]-piperidin-4-yl dimethylamino-acetate p-toluenesulfonate]
0.011 (≈ 0.0348 µM)	COc1ccc(/C(C#N)=C/c2ccnc3ccccc23)cc1OC [Compound 65, (Z)-2-(3,4-dimethoxy-phenyl)-3-quinolin-4-yl-acrylonitrile]
0.037 (≈ 0.115 µM)	COc1ccc(/C(C#N)=C/c2csc3ccccc23)cc1OC [Compound 66, (Z)-3-benzo[b]thiophen-3-yl-2-(3,4-dimethoxy-phenyl)-acrylonitrile]
0.1 (≈ 0.313 µM)	COc1ccc(/C(C#N)=C/c2nc3ccccc3n2C)cc1OC [Compound 67, (Z)-2-(3,4-dimethoxy-phenyl)-3-(1-methyl-1H-benzimidazol-2-yl)-acrylonitrile]
0.011 (≈ 0.0346 µM)	COc1ccc(/C(C#N)=C/c2cn(C)c3ccccc23)cc1OC [Compound 68, (Z)-2-(3,4-dimethoxy-phenyl)-3-(1-methyl-1H-indol-3-yl)-acrylonitrile]
0.011 (≈ 0.0314 µM)	COc1ccc(/C(C#N)=C/c2cc3ccccc3nc2Cl)cc1OC [Compound 70, (Z)-3-(2-chloro-quinolin-3-yl)-2-(3,4-dimethoxy-phenyl)-acrylonitrile]
0.011 (≈ 0.0289 µM)	COc1ccc2nc(Cl)c(/C=C(\C#N)c3ccc(OC)c(OC)c3)cc2c1 [Compound 73, (Z)-3-(2-chloro-6-methoxy-quinolin-3-yl)-2-(3,4-dimethoxy-phenyl)-acrylonitrile]
0.021 (≈ 0.0651 µM)	COc1ccc(/C=C(\C#N)c2nc3ccccc3s2)cc1OC [Compound 74, (E)-2-benzothiazol-2-yl-3-(3,4-dimethoxy-phenyl)-acrylonitrile]
0.017 (≈ 0.0553 µM)	COc1ccc(/C(C#N)=C/c2ccc3c(c2)CCO3)cc1OC [Compound 75, (Z)-3-(2,3-dihydro-benzofuran-5-yl)-2-(3,4-dimethoxy-phenyl)-acrylonitrile]
0.002 (≈ 0.00571 µM)	COc1ccc(/C(C#N)=C/c2cc(-c3ccc(F)cc3)on2)cc1OC [Compound 76, (Z)-2-(3,4-dimethoxy-phenyl)-3-[5-(4-fluoro-phenyl)-isoxazol-3-yl]-acrylonitrile]
0.11 (≈ 0.304 µM)	COc1ccc(-c2cc(/C=C(\C#N)c3ccc(OC)c(OC)c3)no2)cc1 [Compound 77, (Z)-2-(3,4-dimethoxy-phenyl)-3-[5-(4-methoxy-phenyl)-isoxazol-3-yl]-acrylonitrile]
0.077 (≈ 0.243 µM)	COc1ccc(/C(C#N)=C/c2ccc3ccccc3n2)cc1OC [Compound 78, (Z)-2-(3,4-dimethoxy-phenyl)-3-quinolin-2-yl-acrylonitrile]
0.006 (≈ 0.0186 µM)	COc1ccc2nc(Cl)c(/C=C(\C#N)c3ccccn3)cc2c1 [Compound 79, (Z)-3-(2-chloro-6-methoxy-quinolin-3-yl)-2-pyridin-2-yl-acrylonitrile]
0.019 (≈ 0.059 µM)	COc1ccc2nc(Cl)c(/C=C(\C#N)c3cccnc3)cc2c1 [Compound 80, (Z)-3-(2-chloro-6-methoxy-quinolin-3-yl)-2-pyridin-3-yl-acrylonitrile]
0.078 (≈ 0.239 µM)	COc1ccc2nc(Cl)c(/C=C(\C#N)c3ccsc3)cc2c1 [Compound 82, (Z)-3-(2-chloro-6-methoxy-quinolin-3-yl)-2-thiophen-3-yl-acrylonitrile]
0.19 (≈ 0.525 µM)	COc1ccc2nc(Cl)c(/C=C(\C#N)n3nnc4ccccc43)cc2c1 [Compound 83, (E)-2-benzotriazol-1-yl-3-(2-chloro-6-methoxy-quinolin-3-yl)-acrylonitrile]
0.23 (≈ 0.894 µM)	N#C/C(=C\c1ccnc2ccccc12)c1ccccn1 [Compound 85, (Z)-2-pyridin-2-yl-3-quinolin-4-yl-acrylonitrile]
0.12 (≈ 0.466 µM)	N#C/C(=C\c1ccnc2ccccc12)c1cccnc1 [Compound 86, (Z)-2-pyridin-3-yl-3-quinolin-4-yl-acrylonitrile]
0.046 (≈ 0.175 µM)	N#C/C(=C\c1ccnc2ccccc12)c1cccs1 [Compound 87, (E)-3-quinolin-4-yl-2-thiophen-2-yl-acrylonitrile]
0.07 (≈ 0.267 µM)	N#C/C(=C\c1ccnc2ccccc12)c1ccsc1 [Compound 88, (Z)-3-quinolin-4-yl-2-thiophen-3-yl-acrylonitrile]
0.46 (≈ 1.44 µM)	N#C/C(=C\c1csc2ccccc12)c1nc2ccccc2s1 [Compound 90, (E)-3-benzo[b]thiophen-3-yl-2-benzothiazol-2-yl-acrylonitrile]
0.52 (≈ 1.82 µM)	N#C/C(=C\c1cc2ccccc2o1)c1coc2ccccc12 [Compound 91, (Z)-3-benzofuran-2-yl-2-benzofuran-3-yl-acrylonitrile]
0.041 (≈ 0.13 µM)	Cn1cc(/C=C(\C#N)c2nc3ccccc3s2)c2ccccc21 [Compound 92, (E)-2-benzothiazol-2-yl-3-(1-methyl-1H-indol-3-yl)-acrylonitrile]
0.28 (≈ 0.7 µM)	COc1ccc(/C(C#N)=C/c2c3ccccc3c(Cl)c3ccccc23)cc1OC [Compound 93, (Z)-3-(10-chloro-anthracen-9-yl)-2-(3,4-dimethoxy-phenyl)-acrylonitrile]
0.12	CCN(CC)CC(=O)OC1CCN(c2ccc(/C=C(\C#N)c3ccc(OC)c(OC)c3)s2)CC1.Cc1ccc(S(=O)(=O)O)cc1 [Compound 96, 1-[5-[(Z)-2-cyano-2-(3,4-dimethoxy-phenyl)-vinyl]-thiophen-2-yl]-piperidin-4-yl diethylamino-acetate p-toluenesulfonate]
0.078 (≈ 0.166 µM)	CCN(CC)C(=O)OC1CCN(c2ccc(/C=C(\C#N)c3ccc(OC)c(OC)c3)s2)CC1 [Compound 97, 1-[5-[(Z)-2-cyano-2-(3,4-dimethoxy-phenyl)-vinyl]-thiophen-2-yl]-piperidin-4-yl diethyl-carbamate]
0.1	CCN(CC)CCN(C)C(=O)CCC(=O)OC1CCN(c2ccc(/C=C(\C#N)c3ccc(OC)c(OC)c3)s2)CC1 [Compound 98, 1-[5-[(Z)-2-cyano-2-(3,4-dimethoxy-phenyl)-vinyl]-thiophen-2-yl]-piperidin-4-yl N-(2-diethylamino-ethyl)-N-methyl-succinamate hydrochloride]
0.063 (≈ 0.102 µM)	CCN(CC)c1ccc(NC(=O)CCC(=O)OC2CCN(c3ccc(/C=C(\C#N)c4ccc(OC)c(OC)c4)s3)CC2)cc1 [Compound 99, 1-[5-[(Z)-2-cyano-2-(3,4-dimethoxy-phenyl)-vinyl]-thiophen-2-yl]-piperidin-4-yl N-(4-diethylamino-phenyl)-succinamate]

Structure (SMILES)	EC50 [µg/mL]
COc1ccc(/C(C#N)=C/c2ccc(N3CCN(CCO)CC3)s2)cc1OC.CS(=O)(=O)O [Compound 59, (Z)-2-(3,4-dimethoxy-phenyl)-3-{5-[4-(2-hydroxy-ethyl)-piperazin-1-yl]-thiophen-2-yl}-acrylonitrile methanesulfonate]	0.061
COc1ccc(/C(C#N)=C/c2ccc(N3CCN(CCO)CC3)s2)cc1OC.O=S(=O)(O)O [Compound 101, (Z)-2-(3,4-dimethoxy-phenyl)-3-{5-[4-(2-hydroxy-ethyl)-piperazin-1-yl]-thiophen-2-yl}-acrylonitrile sulfate]	0.013

same assay, conditions: Homo sapiens, A549, 48 h, read-out: Effect of overcoming resistance EC50, concentration for 50% reduction of relative SN-38 resistance value (IC50 A549/SN-38-4 / IC50 A549); 48 hours culture with SN-38

Structure (SMILES)	EC50 [µg/mL]
COc1ccc(/C(C#N)=C/c2cc3ccccc3c3ccccc23)cc1OC [Compound 95, (Z)-2-(3,4-dimethoxy-phenyl)-3-phenanthren-9-yl-acrylonitrile]	0.008 (≈ 0.0219 µM)

same assay, conditions: concentration for 50% reduction of relative SN-38 resistance value (IC50 A549/SN-38-4 / IC50 A549); 48 hours culture with SN-38

Structure (SMILES)	Effect of overcoming resistance EC50 [µg/mL]
COc1ccc(/C(C#N)=C/c2ccc(N3CCC(OC(=O)CCC(=O)N4CCC(N5CCCCC5)CC4)CC3)s2)cc1OC.Cl [Compound 64, 1-[5-[(Z)-2-cyano-2-(3,4-dimethoxy-phenyl)-vinyl]-thiophen-2-yl]-piperidin-4-yl 4-[1,4′]bipiperidinyl-1′-yl-4-oxo-butylate hydrochloride]	0.053
COc1ccc(/C(C#N)=C/c2cc3ccccc3o2)cc1OC [Compound 69, (Z)-3-benzofuran-2-yl-(3,4-dimethoxy-phenyl)-acrylonitrile]	0.043
COc1ccc(/C=C(\C#N)c2coc3ccccc23)cc1OC [Compound 72, (Z)-2-benzofuran-3-yl-3-(3,4-dimethoxy-phenyl)-acrylonitrile]	0.011
COc1ccc(/C(C#N)=C/c2ccc(N3CCN(CCO)CC3)s2)cc1OC.COc1ccc(/C(C#N)=C/c2ccc(N3CCN(CCO)CC3)s2)cc1OC.O=S(=O)(O)O [Compound 100, (Z)-2-(3,4-dimethoxy-phenyl)-3-{5-[4-(2-hydroxy-ethyl)-piperazin-1-yl]-thiophen-2-yl}-acrylonitrile ½ sulfate]	0.012

same assay, conditions: concentration for 50% reduction of relative SN-38 resistance value (IC50 A549/SN-38-4 / IC50 A549); 48 hours culture with SN-38; nitrate

Structure (SMILES)	Effect of overcoming resistance EC50 [µg/mL]
COc1ccc(/C(C#N)=C/c2ccc(N3CCN(CCO)CC3)s2)cc1OC [Compound 102, (Z)-2-(3,4-dimethoxy-phenyl)-3-{5-[4-(2-hydroxy-ethyl)-piperazin-1-yl]-thiophen-2-yl}-acrylonitrile nitrate]	0.017
